A short description of data set [1]: Half life in iv dosed Wistar rat serum measured after 2 to 20 mins by HPLC analysis. The format is ADME, organism-based. The settings on record: time 2-20 min.
A further data set concerns the target Insulin receptor (Homo sapiens, UniProt P06213). Nature of the data set: Activation of human IR-B expressed in mouse NIH3T3 cells assessed as increase in Akt phosphorylation at Ser473 residue incubated for 30 mins by HTRF method. Format: cell-based. (In general: TR-FRET usually uses a lanthanide donor and a delayed reading to cut background.)
For data set [2], the target named is Neurotensin receptor type 1 (Rattus norvegicus, UniProt P20789). As to the kind of experiment: Agonist activity at rat NTR1 expressed in CHO cells assessed as effect on [3H] phosphoinositide accumulation using neurotensin (1 to 13 residues) as substrate by radioactive assay. Format: cell-based.
Chain of Neurotensin receptor type 1 (P20789 whole entry, the tested form may be a part): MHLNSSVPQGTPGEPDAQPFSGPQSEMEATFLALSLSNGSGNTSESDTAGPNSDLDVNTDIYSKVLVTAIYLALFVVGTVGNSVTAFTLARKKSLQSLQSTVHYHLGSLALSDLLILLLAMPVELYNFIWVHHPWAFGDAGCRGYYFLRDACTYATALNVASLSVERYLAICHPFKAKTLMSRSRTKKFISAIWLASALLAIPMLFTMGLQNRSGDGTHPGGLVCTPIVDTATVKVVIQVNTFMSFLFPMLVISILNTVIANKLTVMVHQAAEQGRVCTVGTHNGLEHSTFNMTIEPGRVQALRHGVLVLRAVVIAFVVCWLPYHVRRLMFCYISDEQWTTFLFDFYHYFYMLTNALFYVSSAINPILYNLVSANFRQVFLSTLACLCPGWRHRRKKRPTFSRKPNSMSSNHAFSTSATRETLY
Data set [3] in a line: Agonist activity at Zebra fish V2R expressed in African green monkey COS-1 cells assessed as increase in intracellular calcium response by FLIPR assay. The format is cell-based. As to conditions: Danio rerio. A general note: A change in cytosolic calcium serves as a functional read-out for many receptors and channels.
The target of the next data set is T1, Vasopressin V1b receptor (Homo sapiens, UniProt P47901).
T1 sequence (P47901 whole entry): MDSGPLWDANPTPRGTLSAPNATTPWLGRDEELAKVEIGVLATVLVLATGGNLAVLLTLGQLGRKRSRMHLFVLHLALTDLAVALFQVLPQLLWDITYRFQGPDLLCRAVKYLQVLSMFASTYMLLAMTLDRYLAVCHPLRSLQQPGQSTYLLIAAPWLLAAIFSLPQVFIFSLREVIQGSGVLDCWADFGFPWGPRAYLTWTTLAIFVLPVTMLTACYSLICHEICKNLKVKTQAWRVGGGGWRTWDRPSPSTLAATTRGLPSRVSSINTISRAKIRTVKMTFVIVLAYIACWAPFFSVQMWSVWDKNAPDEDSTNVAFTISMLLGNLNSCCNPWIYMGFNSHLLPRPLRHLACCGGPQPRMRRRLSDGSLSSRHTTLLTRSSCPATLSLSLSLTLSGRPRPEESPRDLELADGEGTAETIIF
As to the kind of experiment: Agonist activity at human V1bR expressed in African green monkey COS-1 cells assessed as increase in intracellular calcium response by FLIPR assay. Format: functional, cell-based.

A short description of data set [4]: Agonist activity at Zebra fish V1a1R expressed in African green monkey COS-1 cells assessed as increase in intracellular calcium response by FLIPR assay. Format: cell-based. As to conditions: Danio rerio.
The target in data set [5] is Mas-related G-protein coupled receptor member X1 (Homo sapiens, UniProt Q96LB2). As to the kind of experiment: Activation of human MrgprX1 expressed in BAM 8-22 activated-rat KNRK cells by fura2-AM dye based calcium imaging assay. Format: cell-based.
Chain of Mas-related G-protein coupled receptor member X1 (Q96LB2 whole entry): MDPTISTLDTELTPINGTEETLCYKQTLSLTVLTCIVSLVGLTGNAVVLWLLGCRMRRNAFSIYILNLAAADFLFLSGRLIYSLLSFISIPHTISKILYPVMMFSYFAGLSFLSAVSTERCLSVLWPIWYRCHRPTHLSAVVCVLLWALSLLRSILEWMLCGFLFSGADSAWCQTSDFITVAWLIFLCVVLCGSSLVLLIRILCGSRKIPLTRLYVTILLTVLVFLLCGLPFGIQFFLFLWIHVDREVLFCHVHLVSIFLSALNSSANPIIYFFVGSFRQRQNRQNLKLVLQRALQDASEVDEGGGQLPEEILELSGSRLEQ

pEC50: −log10 of the molar value. Positions of bridges follow the written chain, without caps; N, C: chain ends. Non-standard residues stand in square brackets, D forms with d. Residues, ends and D or L forms follow the SMILES beside them. Gla = N[C@@H](CC(C(=O)O)C(=O)O)C(=O)O

By half-life is commonly meant the time needed for the level to fall by half in the phase considered. In general, pEC50 refers to −log10 of the EC50, conventionally taken in molar units.

Chain of Insulin receptor (P06213 28-758 limits assumed): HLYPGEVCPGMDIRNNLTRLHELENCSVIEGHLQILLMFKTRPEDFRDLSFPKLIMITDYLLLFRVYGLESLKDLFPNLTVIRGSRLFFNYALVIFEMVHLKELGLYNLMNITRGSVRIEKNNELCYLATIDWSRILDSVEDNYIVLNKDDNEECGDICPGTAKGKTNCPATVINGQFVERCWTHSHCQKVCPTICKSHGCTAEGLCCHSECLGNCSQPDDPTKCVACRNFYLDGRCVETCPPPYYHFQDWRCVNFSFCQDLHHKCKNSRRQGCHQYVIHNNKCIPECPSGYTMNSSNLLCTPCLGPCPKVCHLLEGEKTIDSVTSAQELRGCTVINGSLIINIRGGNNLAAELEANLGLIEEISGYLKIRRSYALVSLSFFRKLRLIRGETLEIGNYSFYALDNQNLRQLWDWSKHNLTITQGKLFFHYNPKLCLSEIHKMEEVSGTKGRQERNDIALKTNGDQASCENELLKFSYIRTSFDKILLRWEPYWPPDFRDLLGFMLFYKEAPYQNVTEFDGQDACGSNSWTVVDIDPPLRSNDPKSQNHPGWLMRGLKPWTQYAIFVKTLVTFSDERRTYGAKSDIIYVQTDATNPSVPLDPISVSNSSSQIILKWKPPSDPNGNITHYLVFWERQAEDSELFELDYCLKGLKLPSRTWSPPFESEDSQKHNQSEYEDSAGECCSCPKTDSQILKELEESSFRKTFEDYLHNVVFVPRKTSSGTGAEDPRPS
Chain of Insulin receptor (P06213 763-1382 limits assumed): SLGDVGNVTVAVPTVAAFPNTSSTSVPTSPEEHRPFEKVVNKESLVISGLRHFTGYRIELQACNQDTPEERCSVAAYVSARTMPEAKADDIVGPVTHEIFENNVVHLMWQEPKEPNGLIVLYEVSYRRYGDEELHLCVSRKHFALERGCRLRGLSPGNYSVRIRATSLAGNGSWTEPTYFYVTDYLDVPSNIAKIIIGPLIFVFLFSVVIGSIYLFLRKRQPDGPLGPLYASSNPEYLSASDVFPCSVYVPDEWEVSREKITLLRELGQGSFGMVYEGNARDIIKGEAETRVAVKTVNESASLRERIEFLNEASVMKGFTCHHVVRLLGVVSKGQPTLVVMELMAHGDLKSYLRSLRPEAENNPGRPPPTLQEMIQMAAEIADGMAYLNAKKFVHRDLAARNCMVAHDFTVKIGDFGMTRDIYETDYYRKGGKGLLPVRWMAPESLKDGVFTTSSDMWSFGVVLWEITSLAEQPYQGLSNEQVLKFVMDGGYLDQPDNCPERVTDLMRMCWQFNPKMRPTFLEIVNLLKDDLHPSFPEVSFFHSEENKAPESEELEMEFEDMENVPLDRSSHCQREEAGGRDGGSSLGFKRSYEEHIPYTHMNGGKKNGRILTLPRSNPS

In data set [1], `CC[C@H](C)[C@H](NC(=O)[C@H](Cc1ccccc1)NC(=O)[C@H](CCC(=O)O)NC(=O)[C@H](CCCCN)NC(=O)[C@H](C)NC(=O)[C@H](C)NC(=O)[C@H](CCC(N)=O)NC(=O)CNC(=O)[C@H](CCC(=O)O)NC(=O)[C@H](CC(C)C)NC(=O)[C@H](Cc1ccc(O)cc1)NC(=O)[C@H](CO)NC(=O)[C@H](CO)NC(=O)[C@@H](NC(=O)[C@H](CC(=O)O)NC(=O)[C@H](CO)NC(=O)[C@@H](NC(=O)[C@H](Cc1ccccc1)NC(=O)[C@@H](NC(=O)CNC(=O)[C@H](CCC(=O)O)NC(=O)[C@H](C)NC(=O)[C@@H](N)Cc1cnc[nH]1)[C@@H](C)O)[C@@H](C)O)C(C)C)C(=O)N[C@@H](C)C(=O)N[C@@H](Cc1c[nH]c2ccccc12)C(=O)N[C@@H](CC(C)C)C(=O)N[C@H](C(=O)N[C@@H](CCCCN)C(=O)NCC(=O)N[C@@H](CCCNC(=N)N)C(=O)O)C(C)C` came in with a half-life of 2 min.
With `CC[C@H](C)[C@H](NC(=O)[C@H](CC(C)C)NC(=O)[C@@H](Cc1ccc(O)cc1)NC(=O)[C@H](CCC(N)=O)NC(=O)[C@H](CC(N)=O)NC(=O)[C@H](Cc1ccc(O)cc1)NC(=O)[C@H](CCC(N)=O)NC(=O)[C@H](CC(C)C)NC(=O)[C@@H](Cc1ccc(O)cc1)NC(=O)[C@@H](Cc1ccc(O)cc1)NC(=O)[C@H](CCC(=O)O)NC(=O)CN)C(=O)N[C@@H](CCCNC(=N)N)C(=O)N[C@H](Cc1ccc(O)cc1)C(=O)N[C@@H](CCCCN)C(=O)N[C@@H](CO)C(=O)N[C@@H](CC(N)=O)C(N)=O`, the pEC50 at Insulin receptor was 7.92.
As for `CC[C@H](C)[C@@H]1NC(=O)[C@H](Cc2ccc(O)cc2)NC(=O)[C@H](CO)NC(=O)[C@H](CC(N)=O)NC(=O)[C@@H]2CCCN2C(=O)[C@H]([C@@H](C)CC)NC(=O)[C@H](CC(C(=O)O)C(=O)O)NC(=O)[C@H](CO)NC(=O)CNC(=O)[C@@H]2CSSC[C@@H]3NC(=O)[C@@H](NC(=O)[C@H](Cc4cnc[nH]4)NC(=O)[C@H](CC(C(=O)O)C(=O)O)NC(=O)[C@@H](NC(=O)[C@@H](NC(=O)CN)C(C)C)C(C)C)CSSC[C@H](NC(=O)[C@@H]4CCCN4C(=O)[C@H](CCCNC(=N)N)NC(=O)[C@H](Cc4cnc[nH]4)NC3=O)C(=O)N[C@@H](CO)C(=O)N[C@@H](CC(N)=O)C(=O)N[C@@H](C)C(=O)N[C@@H](CCC(=O)O)C(=O)N[C@@H](Cc3ccccc3)C(=O)N[C@@H](CCCCN)C(=O)N[C@@H](CCCCN)C(=O)N[C@@H](Cc3ccccc3)C(=O)N[C@@H](CSSC[C@H](C(=O)N[C@@H](Cc3ccccc3)C(=O)O)NC(=O)[C@H](CC(C)C)NC(=O)[C@H](CC(=O)O)NC1=O)C(=O)N[C@@H](CC(N)=O)C(=O)N[C@@H](CO)C(=O)N[C@@H](CC(=O)O)C(=O)N[C@@H]([C@@H](C)O)C(=O)N1CC(O)C[C@H]1C(=O)N[C@@H](CCCCN)C(=O)N[C@@H](Cc1ccc(O)cc1)C(=O)N[C@@H](CCCNC(=N)N)C(=O)N2` (some centres undefined), the pEC50 at Insulin receptor is 7.92.
In the case of `CC[C@H](C)[C@@H]1NC(=O)[C@H](CC(=O)O)NC(=O)[C@H](CO)NC(=O)CNC(=O)[C@@H]2CSSC[C@@H]3NC(=O)[C@@H](NC(=O)[C@H](Cc4cnc[nH]4)NC(=O)[C@H](CC(C(=O)O)C(=O)O)NC(=O)[C@@H](NC(=O)[C@@H](NC(=O)CN)C(C)C)C(C)C)CSSC[C@H](NC(=O)[C@@H]4CCCN4C(=O)[C@H](CCCNC(=N)N)NC(=O)[C@H](Cc4cnc[nH]4)NC3=O)C(=O)N[C@@H](CO)C(=O)N[C@@H](CC(N)=O)C(=O)N[C@@H](C)C(=O)N[C@@H](CCC(=O)O)C(=O)N[C@@H](Cc3ccccc3)C(=O)N[C@@H](CCCCN)C(=O)N[C@@H](CCCCN)C(=O)N[C@@H](Cc3ccccc3)C(=O)N[C@@H](CSSC[C@H](C(=O)N[C@@H](Cc3ccccc3)C(=O)O)NC(=O)[C@H](CC(C)C)NC(=O)[C@H](CC(=O)O)NC(=O)[C@H](CCSC)NC(=O)[C@H](Cc3ccc(O)cc3)NC(=O)[C@H](CO)NC(=O)[C@H](CC(N)=O)NC(=O)[C@@H]3CCCN3C1=O)C(=O)N[C@@H](CC(N)=O)C(=O)N[C@@H](CO)C(=O)N[C@@H](CC(=O)O)C(=O)N[C@@H]([C@@H](C)O)C(=O)N1CC(O)C[C@H]1C(=O)N[C@@H](CCCCN)C(=O)N[C@@H](Cc1ccc(O)cc1)C(=O)N[C@@H](CCCNC(=N)N)C(=O)N2` (some centres undefined), on Insulin receptor, the negative-log EC50 (pEC50) is 7.92.
On to `CC[C@H](C)[C@H](NC(=O)[C@H](CC(C)C)NC(=O)[C@@H](Cc1ccc(O)cc1)NC(=O)[C@H](CCC(N)=O)NC(=O)[C@H](CC(N)=O)NC(=O)[C@H](Cc1ccc(O)cc1)NC(=O)[C@H](CCC(N)=O)NC(=O)[C@H](CC(C)C)NC(=O)[C@@H](Cc1ccc(O)cc1)NC(=O)[C@@H](Cc1ccc(O)cc1)NC(=O)[C@H](CCC(=O)O)NC(=O)CN)C(=O)N[C@@H](CCCNC(=N)N)C(=O)N[C@H](Cc1ccc(O)cc1)C(=O)N[C@@H](CCCCN)C(=O)N[C@@H](CO)C(=O)N[C@@H](CC(N)=O)C(=O)O`, for which the pEC50 in data set [2] is 7.70.
Consider `CC(C)C[C@H](NC(=O)[C@H](Cc1ccccc1)NC(=O)[C@@H](N)CS)C(=O)NCC(=O)N[C@@H](CC(N)=O)C(=O)N[C@@H](CS)C(=O)N1CCC[C@H]1C(=O)N[C@@H](CC(=O)O)C(=O)N[C@@H](CO)C(N)=O` (H-CFLGNCPDS-NH2), for which the pEC50 in data set [3] is 6.00.
In the case of `CC(C)C[C@H](NC(=O)[C@H](Cc1ccccc1)NC(=O)[C@@H](N)CS)C(=O)NCC(=O)N[C@@H](CC(N)=O)C(=O)N[C@@H](CS)C(=O)N1CCC[C@H]1C(=O)N[C@@H](CC(=O)O)C(=O)N[C@@H](CO)C(=O)O` (H-CFLGNCPDS-OH), the pEC50 in data set [3] is 6.00.
For the compound `NC(=O)C[C@H](NC(=O)CNC(=O)[C@@H]1CCCN1C(=O)[C@H](Cc1ccccc1)NC(=O)[C@@H](N)CS)C(=O)N[C@@H](CS)C(=O)N1CCC[C@H]1C(=O)N[C@@H](CC(=O)O)C(=O)N[C@@H](CO)C(N)=O` (H-CFPGNCPDS-NH2), the negative logarithm of the EC50 (pEC50) (on Vasopressin V1b receptor; in data set [4]) was 6.00 throughout.
As to H-AWSGPRNRFVRF-OH, the pEC50 in data set [5] is 5.74.
“H-GIV[Gla]DCCYNDCTDEKLKEYCHTLQSDSGTTLVRRRLCGS[Gla]LVTYLGELCLGN-OH (disulfide 6-11, 7-37, 20-49)”: the negative-log EC50 (pEC50) at Insulin receptor was 7.92.
As to “H-GVV[Gla]HCCKRACSNA[Gla]FMQFCNSDTPWNRCGSQITDSYR[Gla]LCPH-OH (disulfide 6-11, 7-29, 20-41)”, the pEC50 on Insulin receptor was 7.92.
With H-HSGFLLAWSGPRNRFVRF-OH, the pEC50 in data set [5] was 5.74.
For H-HSGILLAWSGPRNRFVRI-OH, the negative-log EC50 (pEC50) in data set [5] is 6.30.
